PubChem BioAssay (NCI)
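Cells were grown in 96-well plates and exposed to each compound for 48 hours at five concentrations; endpoints were interpolated linearly between bracketing concentrations, or set to the highest concentration if not reached. TGI is the concentration that stops growth completely.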

Key:
Assay in all cases: growth of human tumour cells (NCI), 48 h
A549 NSCLC = tested on: A549 NSCLC
ACHN renal = tested on: ACHN renal
CAKI-1 renal = tested on: CAKI-1 renal
CCRF-CEM leukemia = tested on: CCRF-CEM leukemia
COLO 205 colon = tested on: COLO 205 colon
DU-145 prostate = tested on: DU-145 prostate
EKVX NSCLC = tested on: EKVX NSCLC
HCT-15 colon = tested on: HCT-15 colon
HL-60(TB) leukemia = tested on: HL-60(TB) leukemia
HOP-62 NSCLC = tested on: HOP-62 NSCLC
HOP-92 NSCLC = tested on: HOP-92 NSCLC
HS 578T breast = tested on: HS 578T breast
HT29 colon = tested on: HT29 colon
IGROV1 ovarian = tested on: IGROV1 ovarian
K-562 leukemia = tested on: K-562 leukemia
KM12 colon = tested on: KM12 colon
LOX IMVI melanoma = tested on: LOX IMVI melanoma
M14 melanoma = tested on: M14 melanoma
MALME-3M melanoma = tested on: MALME-3M melanoma
MCF7 breast = tested on: MCF7 breast
MDA-MB-231 breast = tested on: MDA-MB-231 breast
MDA-MB-435 = tested on: MDA-MB-435
MDA-N = tested on: MDA-N
MOLT-4 leukemia = tested on: MOLT-4 leukemia
NCI-H226 lung = tested on: NCI-H226 lung
NCI-H23 lung = tested on: NCI-H23 lung
NCI-H460 lung = tested on: NCI-H460 lung
NCI-H522 lung = tested on: NCI-H522 lung
NCI/ADR-RES ovarian = tested on: NCI/ADR-RES ovarian
OVCAR-3 ovarian = tested on: OVCAR-3 ovarian
OVCAR-4 ovarian = tested on: OVCAR-4 ovarian
OVCAR-5 ovarian = tested on: OVCAR-5 ovarian
OVCAR-8 ovarian = tested on: OVCAR-8 ovarian
PC-3 prostate = tested on: PC-3 prostate
RPMI-8226 leukemia = tested on: RPMI-8226 leukemia
RXF 393 renal = tested on: RXF 393 renal
SF-268 CNS = tested on: SF-268 CNS
SF-295 CNS = tested on: SF-295 CNS
SF-539 CNS = tested on: SF-539 CNS
SK-MEL-2 melanoma = tested on: SK-MEL-2 melanoma
SK-MEL-28 melanoma = tested on: SK-MEL-28 melanoma
SK-MEL-5 melanoma = tested on: SK-MEL-5 melanoma
SK-OV-3 ovarian = tested on: SK-OV-3 ovarian
SN12C renal = tested on: SN12C renal
SNB-19 CNS = tested on: SNB-19 CNS
SNB-75 CNS = tested on: SNB-75 CNS
SR leukemia = tested on: SR leukemia
SW-620 colon = tested on: SW-620 colon
TK-10 renal = tested on: TK-10 renal
U251 CNS = tested on: U251 CNS
UACC-257 melanoma = tested on: UACC-257 melanoma
UACC-62 melanoma = tested on: UACC-62 melanoma
UO-31 renal = tested on: UO-31 renal
786-0 renal = tested on: 786-0 renal
BT-549 breast = tested on: BT-549 breast
HCC-2998 colon = tested on: HCC-2998 colon
HCT-116 colon = tested on: HCT-116 colon

Measured: TGI

CN(CC(=O)O)c1ncc2c(n1)-c1ccccc1OC2c1ccccc1 (stereo not given)
not listed: 786-0 renal | BT-549 breast | HCC-2998 colon | HCT-116 colon
> 100 µM: all other assays above

CC1(C)CC2=C(SC3C=CC=CC3N2)C(=O)C1C(=O)C(N)=O (stereo not given)
not listed: K-562 leukemia | MALME-3M melanoma | RPMI-8226 leukemia | RXF 393 renal | SR leukemia
> 100 µM: all other assays above
